Reference: ChEMBL document CHEMBL5230123, “A comprehensive review of monoamine oxidase inhibitors as Anti-Alzheimer's disease agents: A review” (Eur J Med Chem, 2020)

Tests used:
[1] = biological target: T1, Amine oxidase [flavin-containing] B (Homo sapiens, UniProt P27338); test: Inhibition of human MAO-B
T1 sequence (P27338 whole entry): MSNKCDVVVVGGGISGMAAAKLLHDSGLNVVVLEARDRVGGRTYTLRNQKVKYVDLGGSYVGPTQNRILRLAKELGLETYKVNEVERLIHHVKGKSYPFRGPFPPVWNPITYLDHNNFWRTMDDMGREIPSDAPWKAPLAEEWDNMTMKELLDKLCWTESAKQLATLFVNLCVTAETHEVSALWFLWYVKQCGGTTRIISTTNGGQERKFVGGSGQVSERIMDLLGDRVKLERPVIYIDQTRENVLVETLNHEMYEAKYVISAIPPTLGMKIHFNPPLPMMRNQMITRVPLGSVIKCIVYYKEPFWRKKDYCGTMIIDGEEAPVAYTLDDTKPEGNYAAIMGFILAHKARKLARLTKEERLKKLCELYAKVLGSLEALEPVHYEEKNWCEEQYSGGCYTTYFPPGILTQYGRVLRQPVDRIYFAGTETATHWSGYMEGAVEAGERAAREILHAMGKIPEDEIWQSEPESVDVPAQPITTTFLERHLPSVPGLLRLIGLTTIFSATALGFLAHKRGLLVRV

[2] = biological target: T2, Amine oxidase [flavin-containing] A (Homo sapiens, UniProt P21397); test: Mixed type inhibition of human MAO-A assessed as inhibition constant by Lineweaver-Burk plot analysis
T2 sequence (P21397 whole entry): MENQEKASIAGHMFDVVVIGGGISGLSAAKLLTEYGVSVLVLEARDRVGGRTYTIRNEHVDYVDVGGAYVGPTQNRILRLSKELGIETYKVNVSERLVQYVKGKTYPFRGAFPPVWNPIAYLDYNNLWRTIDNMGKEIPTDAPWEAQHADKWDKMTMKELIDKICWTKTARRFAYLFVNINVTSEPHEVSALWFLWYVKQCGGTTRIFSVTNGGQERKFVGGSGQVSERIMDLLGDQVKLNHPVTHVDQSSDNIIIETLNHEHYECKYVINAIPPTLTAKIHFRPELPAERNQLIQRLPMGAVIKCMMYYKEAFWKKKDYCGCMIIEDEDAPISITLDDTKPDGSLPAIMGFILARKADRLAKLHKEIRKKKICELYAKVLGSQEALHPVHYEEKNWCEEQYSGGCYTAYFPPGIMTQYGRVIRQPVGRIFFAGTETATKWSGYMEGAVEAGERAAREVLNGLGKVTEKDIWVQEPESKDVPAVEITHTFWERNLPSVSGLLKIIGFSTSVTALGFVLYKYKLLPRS

[3] = biological target: T1, Amine oxidase [flavin-containing] B; test: Inhibition of human MAO-B using benzylamine as substrate
[4] = biological target: T2, Amine oxidase [flavin-containing] A; test: Inhibition of human MAO-A assessed as inhibition constant using kynuramine as substrate
[5] = biological target: T1, Amine oxidase [flavin-containing] B; test: Inhibition of human MAO-B assessed as inhibition constant using benzylamine as substrate
Acetylcholinesterase = Acetylcholinesterase (Electrophorus electricus, UniProt O42275); test: Inhibition of electric eel AChE using acetylthiocholine iodide as substrate incubated for 15 mins by Ellman's method
Sequence of Acetylcholinesterase (O42275 whole entry): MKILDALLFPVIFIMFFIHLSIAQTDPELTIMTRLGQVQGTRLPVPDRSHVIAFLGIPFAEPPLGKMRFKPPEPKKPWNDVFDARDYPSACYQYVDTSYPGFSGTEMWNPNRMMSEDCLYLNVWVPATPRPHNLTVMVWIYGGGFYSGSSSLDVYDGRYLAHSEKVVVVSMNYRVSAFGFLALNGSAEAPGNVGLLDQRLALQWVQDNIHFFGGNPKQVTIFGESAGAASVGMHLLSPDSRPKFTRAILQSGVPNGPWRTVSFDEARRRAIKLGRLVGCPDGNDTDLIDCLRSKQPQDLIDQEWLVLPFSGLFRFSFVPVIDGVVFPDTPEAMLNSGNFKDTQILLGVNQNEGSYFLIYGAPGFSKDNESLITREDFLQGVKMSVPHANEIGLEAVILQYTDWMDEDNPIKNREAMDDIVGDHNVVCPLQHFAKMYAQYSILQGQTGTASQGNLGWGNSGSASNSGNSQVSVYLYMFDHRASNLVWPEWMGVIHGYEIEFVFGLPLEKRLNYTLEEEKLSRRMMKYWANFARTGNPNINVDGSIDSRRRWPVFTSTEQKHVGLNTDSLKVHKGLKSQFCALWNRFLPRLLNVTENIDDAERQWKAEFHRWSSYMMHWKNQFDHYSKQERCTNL

[6] = biological target: T1, Amine oxidase [flavin-containing] B; test: Inhibition of human MAO-B using tyramine hydrochloride as substrate preincubated for 30 mins followed by substrate addition and measured after 30 mins by fluorescence assay

COc1cc(O)c2c(=O)oc3cc(O)cc(C)c3c2c1
IC50 [1]: > 80 µM
Ki [2]: 0.34 µM

COc1cc(/C=C/C(=O)CC(=O)/C=C/c2ccc(O)cc2)ccc1O
IC50 [3]: 2.45 µM
Ki [4]: 0.91 µM

O=C(/C=C/c1ccc(O)cc1)CC(=O)/C=C/c1ccc(O)cc1 [BISDEMETHOXYCURCUMIN]
IC50 [3]: 2.59 µM
Ki [5]: 0.8 µM

C#CCN1C(=O)/C(=N/NC(=O)c2ccc3c(c2)OCO3)c2ccccc21
IC50 (Acetylcholinesterase): 0.052 µM

O=C(CSC(=S)N1CCN(c2ccc([N+](=O)[O-])cc2)CC1)N(Cc1ccc([N+](=O)[O-])cc1)c1ccc(F)cc1
IC50 [6]: 0.097 µM
